Assay results reported in publication PMC6838110 (Nature Communications, 2019).

Legend:
NCI-H1299 cells = assay: Colony formation assay with ionizing radiation; assay type: cell-based, human; conditions: for DEF37 Mean / DEF37 n1 / DEF37 n2: NCI-H1299
Procedure: page 32: […] Plates were then washed 2x with PBS, incubated with 20 µL of antibody solution containing […] incubated at RT for 2 hours. Plates were washed 3x with PBS before imaging on the CV7000 high-content imaging platform (Yokogawa). Following image acquisition, images were exported to the ColumbusTM image data storage and analysis system (Perkin Elmer). Optimized image algorithms were used to evaluate phenotypic response s using nuclear staining with Hoechst (cell cycle, micronuclei, nuclear fragmentation ), as well as to quantify the response of DNA damage response markers (foci numbers and total signal […] SDS-PAGE and Western blotting of samples Protein lysates were generated by scraping cells in radioimmunoprecipitation assay […] and protease and phosphatase inhibitor tablets (Roche) following compound treatments at indicated time points. Protein concentration was determined using the BCA protein assay kit (ThermoFisher). Proteins were separated by SDS -PAGE on NuPAGE® 4-12% […] membranes using the iBlot ® dry blotting system (ThermoFisher). Membranes were […] and incubated with primary antibody overnight at 4°C. Membranes were then washed with TBS-T and incubated with HRP-conjugated anti-rabbit or anti-mouse antibodies for 1 hour at RT. Proteins were detected by incubating membranes with SuperSignalTM Dura extended-duration substrate (ThermoFisher) and visualiz ed using the G:BOX ChemiGenius imaging system (Syngene). Band intensities were quantified using Syngene Genetools software. For analysis o f in vivo samples, a two-sided t-test was performed on logged data assuming unequal variance. A list of all antibodies used in this study can be found in Supplementary Table 5. Colony formation assay Cells were plated at low density into six-well plates in 3 mL medium (500 cells for A549, NCI-H1299 and FaDu WT, 4000 cells for FaDu ATM […]) and incubated overnight. Cell plating numbers were adjusted for higher IR doses to compensate for cell kill. […] Cell colonies were washed with […] acetic acid for >10 minutes. Excess stain was removed by washing with water. Surviving colonies (>50 cells) were counted using the GelCountTM colony counter (Oxford Optronix). Mean surviving colonies were calculated from three technical replicates. […] fraction. […] 33

[1] = system: FaDu and A549 ATM KO cells; assay: Live/Dead assay, AZD7648 monotherapy, ATM KO versus WT isogenic pairs; assay type: cell-based, human; conditions: AZD7648 single agent
Source text: (§1) by Live/Dead assay in A) UWB1.289 and UWB1.289 complemented with wild-type BRCA1 (UWB1.289 + BRCA1), DLD1 and DLD1 with the BRCA2 gene knocked out (DLD1 BRCA2 KO), and B) FaDu and A549 cells with the ATM gene knocked out (ATM KO) compared with their WT counterpart. Graphs represent percentage viable cells ± SD following 7 days’ treatment relative to DMSO vehicle-treated controls from one representative experiment of at least three independent experiments. Tables describe […]
(§2) and A549 ATM KO cells compared with their WT counterparts following 7 days’ treatment.
(§3) Mean pGI50 (–log [GI50]) ± SEM, geometric mean GI50, number of experimental repeats (n) and 95% confidence interval are described. C) Colony formation assay was performed on FaDu and A549 ATM KO and WT cells treated with increasing concentrations of olaparib. Graphs represent percentage surviving fraction of colonies ± SD following 10– 14 days’ treatment relative to DMSO vehicle-treated control from one representative experiment of three independent experiments. […] Mean pIC50
(§4) ± SEM, geometric mean IC50, number of experimental repeats (n) and 95% confidence […]
(§5) 8–14 days or with increasing concentrations of olaparib. Cell colonies were washed with […]
(§6) Mean surviving colonies were calculated from three technical replicates. […]
(§7) before survival fraction was calculated. […]
(§8) and quantified using the Acumen ® Cellista (TTP Labtech). […]

[2] = system: UWB1.289 and DLD1 BRCA2 KO cells; assay: Live/Dead assay, AZD7648 monotherapy, BRCA1/BRCA2 isogenic pairs; assay type: cell-based; conditions: 7 days treatment
Source text: as §1, §2, §3, §4, §5, §6, §7, §8

FaDu ATM KO cells = assay: Cell proliferation (GI50), Live/Dead assay; assay type: cell-based; conditions: Homo sapiens, read-out: GI50 (near 50% of maximal inhibition of cell proliferation)
Source text: as §1, §2, §3, §4, §5, §6, §7, §8

SMILES: Cc1cc2ncnn2cc1Nc1ncc2c(n1)n(C1CCOCC1)c(=O)n2C [AZD7648]
- Mean DEF37 (NCI-H1299 cells; H1299, AZD7648 1 μM + IR (Fig. 1e)): 7.4
- DEF37 Mean (NCI-H1299 cells; AZD7648 0.025 μM + IR): 1.3
- DEF37 n1 (NCI-H1299 cells; AZD7648 0.025 μM + IR): 1.2
- DEF37 n2 (NCI-H1299 cells; AZD7648 0.025 μM + IR): 1.3
- DEF37 Mean (NCI-H1299 cells; AZD7648 0.1 μM + IR): 2.5
- DEF37 n1 (NCI-H1299 cells; AZD7648 0.1 μM + IR): 2.9
- DEF37 Mean (NCI-H1299 cells; AZD7648 1.21 μM + IR): 7.4
- DEF37 n1 (NCI-H1299 cells; AZD7648 1.21 μM + IR): 7.9
- DEF37 n2 (NCI-H1299 cells; AZD7648 1.21 μM + IR): 7.0
- greater sensitivity of ATM KO cells compared with isogenic WT cells [1]: > 10 fold
- effect of loss of BRCA1 or BRCA2 on sensitivity to monotherapy [2]: did not sensitize
- GI50 (FaDu ATM KO cells): ~600 nM
